PMC10126811, “The dinitrobenzamide mustard prodrugs, PR-104A and SN27686, for use in a novel MNDEPT cancer prodrug therapy approach” (Bioscience Reports, 2023)
Read-outs that look alike come from different tables or passages of the source.

How the values were obtained:
[1] = biological target: T1, NfnB-cys (Escherichia coli, UniProt P38489); experiment: prodrug consumption at […] nm, microplate, Michaelis-Menten fit; assay type: biochemical; conditions: read-out: Km μM, NADH 4 mM, 50 mM phosphate pH 7.2, 37 °C, 5% v/v DMSO, prodrug 0.1-20 mM
T1 construct: gene nfsB; pET28a+ His-tag plus tag of 6 N-terminal cysteines, tags kept; E. coli Rosetta pLysS; FMN-loaded; approx. 28 kDa monomer on SDS-PAGE; free enzyme

[2] = system: T2, YfkO-cys; experiment: as above; assay type: biochemical, Bacillus licheniformis; conditions: NADH 4 mM, 50 mM phosphate pH 7.2, 37 °C, 5% v/v DMSO, prodrug 0.1-20 mM
T2 construct: pET28a+ His-tag plus tag of 6 N-terminal cysteines, tags kept; E. coli Rosetta pLysS; FMN-loaded; approx. 30 kDa monomer on SDS-PAGE; free enzyme

T1 sequence (P38489 whole entry): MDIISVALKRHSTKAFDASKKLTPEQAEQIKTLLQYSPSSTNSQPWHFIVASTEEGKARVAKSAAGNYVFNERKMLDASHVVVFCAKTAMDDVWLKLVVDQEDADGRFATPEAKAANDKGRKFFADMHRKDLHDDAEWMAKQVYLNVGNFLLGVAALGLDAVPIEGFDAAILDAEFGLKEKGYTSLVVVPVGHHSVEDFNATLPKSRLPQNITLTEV

Row | Compound | Km ([1]; text b40 prints 3172 μM) | Km ([2]; text b40 prints 1935 μM) | Km ([1]; text b40 prints 257 μM) | Km [2]
1 | CS(=O)(=O)OCCN(CCBr)c1c(C(=O)NCCO)cc([N+](=O)[O-])cc1[N+](=O)[O-] [PR-104A, 2-[N-(2-bromoethyl)-2-(2-hydroxyethylcarbamoyl)-4,6-dinitroanilino]ethylmethanesulfonate] | 3100 ± 400 µM | 1900 ± 350 µM | – | –
2 | O=C(NCCO)c1cc([N+](=O)[O-])cc([N+](=O)[O-])c1N(CCBr)CCBr [SN27686] | – | – | 250 ± 80 µM | 420 ± 120 µM
